Reference: patent US11040952B2, “Phthalazinone compound, method for preparation thereof, pharmaceutical composition thereof, and use thereof” (SHANGHAI INSTITUTE OF MATERIA MEDICA, CHINESE ACADEMY OF …, priority 2017, dated 2021)
pIC50: −log10 of the molar value.

Key:
HBV = HBV DNA content in the supernatant of cell culture (real-time PCR); type: cell-based, hepatitis B virus (HBV); conditions: Hepatitis B virus, HepG2.2.15, 192 h, inhibition of HBV DNA replication, HepG2.2.15 supernatant, 8 days
Description: (§1) Human hepatoblastoma cell line HepG2.2.15 stably transfected with full-length HBV (provided by Shanghai Institute of Materia Medica, Chinese Academy of Sciences)
(§2) HepG2.2.15 cells were cultured and passaged according to conventional methods. DMEM containing 10% (v/v) bovine serum and the selective antibiotic G418 was used as a medium, the cells were cultured in an incubator at 37° C. under 5% CO2 for 8 days (the medium was exchanged on the 4th day).
(§3) The test compounds were formulated with DMSO into a 40 mM stock solution, which was then prepared into a solution at the defined highest concentration using a DMEM medium containing 10% Hyclone™ Fetal Bovine Serum, followed by diluting the same; the positive drug was lamivudine, which was also prepared into a solution at the defined concentration with the DMEM medium containing 10% Hyclone™ Fetal Bovine Serum.
HepG2.2.15 cells were treated with compounds at different concentrations for 8 days (the medium was exchanged on the 4th day), and the supernatant was aspirated, and the HBV DNA contained in the mature virus particles in the supernatant was quantitated by using a real-time PCR method.
1) The supernatant DNA from a 96-well plate, 200 μl/well, was collected, wherein the contents in the duplicate wells were collected into a same EP tube, and centrifuged at 4000 rcf for 5 min, and the supernatant was collected;
2) 200 μl of the supernatant was added into a 1.5 ml EP tube, added with 20 μl of proteinase K and 200 μl of Buffer AL (Qiagen, DNeasy® Blood & Tissue Kit), vortexed to be mixed thoroughly, and incubated at 56° C. for 10 min;
3) 200 μl of ethanol was added and vortexed to be mixed thoroughly;
4) all the liquid obtained from step 3) was added into a DNeasy Mini spin column (Qiagen, DNeasy® Blood & Tissue Kit) placed in a 2 ml waste liquid collection tube, and centrifuged at 6000 rcf for 1 min, and the supernatant was discarded;
5) the DNeasy Mini spin column was placed in a new 2 ml waste liquid collection tube, added with 500 μl of Buffer AW1 (Qiagen, DNeasy® Blood & Tissue Kit), and centrifuged at 6000 rcf for 1 min, and the supernatant was discarded;
6) the DNeasy Mini spin column was placed in a new 2 ml waste liquid collection tube, added with 500 μl of Buffer AW2, (Qiagen, DNeasy® Blood & Tissue Kit), and centrifuged at 20000 rcf for 3 min, and the supernatant was discarded;
7) the DNeasy Mini spin column was placed in anew 1.5 ml EP tube, 50 μl of Buffer AE (Qiagen, DNeasy® Blood & Tissue Kit) was pipetted and directly applied onto the membrane of the DNeasy Mini spin column, which was then left at room temperature for 5 min, and centrifuged at 6000 rcf for 1 min to elute the DNA from the membrane, the DNeasy Mini spin column was discarded, and the DNA sample was collected and stored at −20° C.
1) Standard curve: 1e^7-1e^4 IU/ml, the sample amount was 1 μl, a blank well was set so as to check whether the reaction system is polluted or not;
2) 1 μl of a DNA sample was added in sequence;
3) Addition of enzyme and reaction buffer: two tubes of the reaction solution were first added into the enzyme, mixed well and centrifuged slightly, placed on ice, added with the sample, followed by addition of 19 μl of the enzyme reaction solution, wherein, during the addition, the DNA sample should be sure of not being touched to cause contamination;
4) the sample was sealed with a sealing film and centrifuged;
Stage 2: 10 cycles • Step 1: 93° C., 45 s • Step 2: 55° C., 1 min Stage 3: 45 cycles • Step 1: 93° C., 30 s • Step 2: 55° C., 45 s
Detection: data were collected after completing the step 2 (55° C., 45 s) of the stage 3.
The experimental data were processed by using the Origin software and IC50 was calculated.

[1] = MTT assay for cytotoxicity; type: cell-based, Human; conditions: human, HepG2.2.15 cells, half (50%) lethal concentration
Description: as §1, §2, §3
HepG2.2.15 cells were seeded at 5×10^3 cells/well in a 96-well plate, and cultured for eight days in the presence of the compounds according to the above method, and then 200 μl of the supernatant was taken out, followed by addition of the MTT solution. After 4 hours of culture, a lysate was added. After 12 hours of culture, the OD570 was measured on a microplate reader. By comparing with the absorbance of the control well, the percentage of viable cells was calculated, and CC50, the concentration required for the reduction of cell viability by 50%, was calculated.

Compound	pIC50 (HBV)	CC50 at 8 days [1] [µM]
CCOC(=O)CCCNc1ccc(-c2nn(Cc3ccc(C#N)cc3)c(=O)c3ccccc23)c(F)n1 [IV-35]	5.91	> 100
COCCNc1ccc(-c2nn(Cc3ccc(C#N)cc3)c(=O)c3ccccc23)c(F)n1 [IV-26]	6.37	> 100
COc1cc2c(-c3ccc(C)nc3F)nn(Cc3ccc(Cl)cc3)c(=O)c2cc1OC [Compound V-6]	5.59	> 100
CCOCCCNc1ccc(-c2nn(Cc3ccc(C#N)cc3)c(=O)c3ccccc23)c(F)n1 [IV-43]	6.54	89.8
[2H]C([2H])(c1ccc(C#N)cc1)n1nc(-c2ccc(F)nc2F)c2ccccc2c1=O [IV-18]	6.68	> 100
N#Cc1ccc(Cn2nc(-c3cc(Cl)c(NCCCC(=O)O)nc3F)c3ccccc3c2=O)cc1 [IV-52]	7.07	> 100
N#Cc1ccc(Cn2nc(-c3ccc(NC4CC4)nc3F)c3ccccc3c2=O)cc1 [IV-13]	5.42	78.5
CC(C)(C)OC(=O)COCCNc1ccc(-c2nn(Cc3ccc(C#N)cc3)c(=O)c3ccccc23)c(F)n1 [IV-58]	5.28	> 100
COCCOCCOCCNc1nc(F)c(-c2nn(Cc3ccc(C#N)cc3)c(=O)c3ccccc23)cc1Cl [IV-50]	8.02	> 100
N#Cc1ccc(Cn2nc(-c3cc(Cl)c(NCCOCC(=O)O)nc3F)c3ccccc3c2=O)cc1 [IV-60]	6.12	> 100
CCOCCOCCNc1nc(F)c(-c2nn(Cc3ccc(C#N)cc3)c(=O)c3ccccc23)cc1Cl [IV-57]	7.06	≥ 100
N#Cc1ccc(Cn2nc(-c3cc(Cl)c(NCC(O)CO)nc3F)c3ccccc3c2=O)cc1 (centres unmarked) [IV-80]	> 7.01	> 100
CS(=O)(=O)CCNc1nc(F)c(-c2nn(Cc3ccc(C#N)cc3)c(=O)c3ccccc23)cc1Cl [IV-75]	7.44	> 100
N#Cc1ccc(Cn2nc(-c3cc(Cl)c(NCCCCO)nc3F)c3ccccc3c2=O)cc1 [IV-69]	8.09	25
COCCNc1nc(F)c(-c2nn(Cc3ccc(Cl)cc3)c(=O)c3ccccc23)cc1Cl [IV-29]	7.36	26.6
CCOC(=O)CCCNc1nc(F)c(-c2nn(Cc3ccc(C#N)cc3)c(=O)c3ccccc23)cc1Cl [IV-36]	6.32	> 100
CC(O)CNc1ccc(-c2nn(Cc3ccc(C#N)cc3)c(=O)c3ccccc23)c(F)n1 (centres unmarked) [IV-81]	6.48	65.2
N#Cc1ccc(Cn2nc(-c3cc(Cl)cnc3F)c3ccccc3c2=O)cc1 [Compound I-40]	7.29	> 100
CCNCCCCNc1nc(F)c(-c2nn(Cc3ccc(C#N)cc3)c(=O)c3ccccc23)cc1Cl [IV-55]	7.05	2.56

Compound	pIC50 (HBV)	CC50 at 8 days [1] [µM]
CC(C)(C)OC(=O)COCCNc1nc(F)c(-c2nn(Cc3ccc(C#N)cc3)c(=O)c3ccccc23)cc1Cl [IV-59]	6.11	> 100
CC(O)CNc1nc(F)c(-c2nn(Cc3ccc(C#N)cc3)c(=O)c3ccccc23)cc1Cl (centres unmarked) [IV-82]	6.68	71.9
CC(C)(C)Nc1ccc(-c2nn(Cc3ccc(Cl)cc3)c(=O)c3ccccc23)c(F)n1 [Compound I-14]	5.68	10.3
COCCNc1nc(F)c(-c2nn(Cc3ccc(C#N)cc3)c(=O)c3ccccc23)cc1Cl [IV-27]	7.85	> 100
COCCNc1ccc(-c2nn(Cc3ccc(Cl)cc3)c(=O)c3ccccc23)c(F)n1 [IV-28]	6.72	21.3
CS(=O)(=O)CCNc1ccc(-c2nn(Cc3ccc(C#N)cc3)c(=O)c3ccccc23)c(F)n1 [IV-74]	6.89	> 100
[2H]C([2H])(c1ccc(Cl)cc1)n1nc(-c2ccc(F)nc2F)c2ccccc2c1=O [Compound I-27]	6.52	> 100
CCNCCCNc1nc(F)c(-c2nn(Cc3ccc(C#N)cc3)c(=O)c3ccccc23)cc1Cl [IV-54]	6.33	8.55
COCCCNc1ccc(-c2nn(Cc3ccc(C#N)cc3)c(=O)c3ccccc23)c(F)n1 [IV-32]	6.72	43.7
COCCCNc1nc(F)c(-c2nn(Cc3ccc(C#N)cc3)c(=O)c3ccccc23)cc1Cl [IV-33]	> 7.01	181
Cc1ccc(-c2nn(Cc3ccc(Cl)cc3)c(=O)c3cc(F)c(F)cc23)c(F)n1 [Compound V-2]	6.52	> 100
N#Cc1ccc(Cn2nc(-c3ccc(CO)nc3F)c3ccccc3c2=O)cc1 [IV-20]	6.52	> 100
CCNCCCNc1ccc(-c2nn(Cc3ccc(C#N)cc3)c(=O)c3ccccc23)c(F)n1 [IV-53]	5.97	18.1
O=c1c2ccccc2c(-c2cccnc2)nn1Cc1ccc(Cl)cc1 [Compound I-2]	5.51	98.7
Nc1ncc(-c2nn(Cc3ccc(Cl)cc3)c(=O)c3ccccc23)cn1 [II-1]	5.42	41.5
CC1(C)OCC(CNc2ccc(-c3nn(Cc4ccc(C#N)cc4)c(=O)c4ccccc34)c(F)n2)O1 (centres unmarked) [IV-78]	6.47	> 100
O=c1c2ccccc2c(-c2ccc(NCC3CCOCC3)nc2F)nn1Cc1ccc(Cl)cc1 [Compound I-30]	6.40	> 100
O=c1c2ccccc2c(-c2ccncc2)nn1Cc1ccc(Cl)cc1 [Compound I-1]	5.14	> 100
